Results taken from PMC11962866 (RSC Advances, 2025).
Values after ≈ are worked out from the molar mass of the structure shown. Where two headings read alike, the source gives them in different places.

Assays:
Plasma stability assay = details: male, SD, rat
C. alb (SC5314) = experiment: In vitro antifungal assay; format: cell-based; details: Candida albicans, SC5314, read-out: MIC80 C. alb (SC5314)
C. neo = experiment: In vitro antifungal assay; format: cell-based; details: Cryptococcus neoformans, read-out: MIC80 C. neo
[1] = Metabolic stability assay of liver microsomes; format: in vitro ADME; details: mouse
Strain 17# = experiment: Antifungal activity against fluconazole-resistant strain; format: cell-based; details: Candida albicans, read-out: MIC80 Strain 17#
Strain 901 = experiment: as above; format: cell-based; details: Candida albicans, 901, read-out: MIC80 Strain 901
Strain 632 = experiment: as above; format: cell-based; details: Candida albicans, 632, read-out: MIC80 Strain 632
Strain CaR = experiment: as above; format: cell-based; details: Candida albicans, read-out: MIC80 Strain CaR
MRC-5 cells = experiment: Cytotoxicity assay on normal cells; format: cell-based, human; details: read-out: IC50 on MRC-5 cell lines
Strain 904 = experiment: Antifungal activity against fluconazole-resistant strain; format: cell-based, Candida albicans; details: for MIC80: Candida albicans, 904, read-out: MIC80 Strain 904
[2] = test system: ERG11 and CDR1 of azole-resistant strain 904; experiment: RT-PCR expression of resistant genes ERG11 and CDR1; format: cell-based, Candida albicans; details: 0.25 μg mL^−1, strain 904, RT-PCR
[3] = test system: strain 904, fluconazole-resistant strain of C. albicans; experiment: Minimum fungicidal concentration; format: cell-based, Candida albicans; details: Candida albicans, read-out: MFC against C. alb
[4] = test system: five fluconazole-resistant strains obtained from clinical isolation; experiment: Antifungal activity, span over five fluconazole-resistant strains; format: cell-based, Candida albicans
C. alb SC5314 [5] = experiment: Morphological observation of fungal cells by TEM; format: cell-based, Candida albicans; details: 2 μg mL^−1, 24 h
[6] = test system: azole-resistant strain 904; experiment: Yeast-to-hypha morphological transition; format: cell-based, Candida albicans; details: 0.25 μg mL^−1, 5 h
C. alb SC5314 [7] = experiment: GC-MS analysis of sterol composition; format: cell-based, Candida albicans; details: 0.03 μg mL^−1, 24 h
[8] = test system: azole-resistant strain 904; experiment: In vivo antifungal potency, mouse infection model, kidney fungal burden; details: mice, tail vein infection with strain 904, intraperitoneal, day 5

`Clc1ccc(COC(Cn2ccnc2)c2ccc(Cl)cc2Cl)c(Cl)c1` (centres unmarked) [Miconazole, miconazole] showed a half-life (Plasma stability assay) of over 6 h, a remaining at 3 h (Plasma stability assay) of 94.9% and an MIC80 (C. alb (SC5314)) of 0.25 µg/mL (≈ 0.601 µM). It also gave an MIC80 (C. neo) of 0.125 µg/mL (≈ 0.3 µM), a half-life [1] of 0.138 h and a microsomal CLint [1] of 660 µL/min/mg.
In the case of `O=C(Nc1ccc(Br)cc1)c1ccc(COC(Cn2ccnc2)c2ccc(Cl)cc2Cl)cc1` (centres unmarked) [A04, N-(4-Bromophenyl)-4-((1-(2,4-dichlorophenyl)-2-(1H-imidazol-1-yl)ethoxy)methyl)benzamide], the MIC80 (Strain 17#) is reported as 16 µg/mL (≈ 29.3 µM), the MIC80 (C. alb (SC5314)) is reported as 0.06 µg/mL (≈ 0.11 µM) and the MIC80 (Strain 901) is reported as 2 µg/mL (≈ 3.67 µM). It also gave an MIC80 (C. neo) of 0.25 µg/mL (≈ 0.458 µM), an MIC80 (Strain 632) of 4 µg/mL (≈ 7.34 µM) and an MIC80 (Strain CaR) of 4 µg/mL (≈ 7.34 µM). It also gave an IC50 (MRC-5 cells; Homo sapiens, MRC5, 72 h) of over 100 µM and an MIC80 (Strain 904) of 0.25 µg/mL (≈ 0.458 µM).
`O=C(Nc1ccc(Cl)cc1)c1ccc(COC(Cn2ccnc2)c2ccc(Cl)cc2Cl)cc1` (centres unmarked) [A03, N-(4-Chlorophenyl)-4-((1-(2,4-dichlorophenyl)-2-(1H-imidazol-1-yl)ethoxy)methyl)benzamide] showed an MIC80 (Strain 17#) of 16 µg/mL (≈ 31.9 µM), an MIC80 (C. alb (SC5314)) of 0.125 µg/mL (≈ 0.25 µM) and an MIC80 (Strain 901) of 2 µg/mL (≈ 3.99 µM). For the same molecule, the MIC80 (C. neo) was 0.06 µg/mL (≈ 0.12 µM), the MIC80 (Strain 632) was 4 µg/mL (≈ 7.99 µM) and the MIC80 (Strain CaR) was 8 µg/mL (≈ 16 µM). The IC50 (MRC-5 cells; Homo sapiens, MRC5, 72 h) was over 100 µM and the MIC80 (Strain 904) was 0.25 µg/mL (≈ 0.499 µM).
In the case of `O=C(Nc1ccccc1)c1ccc(COC(Cn2ccnc2)c2ccc(Cl)cc2Cl)cc1` (centres unmarked) [A01, 4-((1-(2,4-dichlorophenyl)-2-(1H-imidazol-1-yl)ethoxy)methyl)-N-phenylbenzamide], the MIC80 (Strain 17#) is reported as 8 µg/mL (≈ 17.2 µM), the MIC80 (C. alb (SC5314)) is reported as 0.125 µg/mL (≈ 0.268 µM) and the MIC80 (Strain 901) is reported as 2 µg/mL (≈ 4.29 µM). The “Expression of ERG11 and CDR1” value [2] was “reduced to basic levels”, the MIC80 (C. neo) was 0.25 µg/mL (≈ 0.536 µM) and the MIC80 (Strain 632) was 4 µg/mL (≈ 8.58 µM). For the same molecule, the MIC80 (Strain CaR) was 4 µg/mL (≈ 8.58 µM), the IC50 (MRC-5 cells; Homo sapiens, MRC5, 72 h) was over 100 µM and the MIC80 (Strain 904) was 0.5 µg/mL (≈ 1.07 µM).
In the case of `N.N.[Cl][Pt][Cl]` [cis-Pt, reference compound], the IC50 (MRC-5 cells; 72 hours) is reported as 78.3 µM.
Molecule `OC(Cn1cncn1)(Cn1cncn1)c1ccc(F)cc1F` [Fluconazole, fluconazole, reference compound] has an MIC80 (Strain 17#) of over 128 µg/mL, a half-life (Plasma stability assay) of over 6 h and a remaining at 3 h (Plasma stability assay) of 102%. The MFC [3] was over 128 µg/mL, the “Antifungal activity against the tested resistant strains (in words)” value [4] was “completely inactive” and the “Fungal cell morphology (TEM)” value (C. alb SC5314 [5]) was “the cell membrane was damaged”. The MIC80 (C. alb (SC5314)) was 4 µg/mL (≈ 13.1 µM), the MIC80 (Strain 901) was over 128 µg/mL and the “Morphological transition from yeast to hyphae” value [6] was “did not inhibit the morphological transition”. For the same molecule, the “Expression of ERG11 and CDR1” value [2] was “overexpression of drug resistance gene ERG11 and CDR1”, the MIC80 (C. neo) was 8 µg/mL (≈ 26.1 µM) and the MIC80 (Strain 632) was over 128 µg/mL. For the same molecule, the “Effect on ergosterol biosynthesis / sterol composition” value (C. alb SC5314 [7]) was “effectively suppresses ergosterol biosynthesis”, the MIC80 (Strain CaR) was over 128 µg/mL and the IC50 (MRC-5 cells; Homo sapiens, MRC5, 72 h) was over 100 µM. For the same molecule, the “Efficacy in vivo (CFU fungal burden in kidneys)” value [8] was “ineffective”, the MIC80 (Strain 904) was over 128 µg/mL and the MIC (Strain 904; Candida albicans, 904, read-out: MIC against C. alb) was over 128 µg/mL. For the same molecule, the half-life [1] was over 2 h and the microsomal CLint [1] was 2 µL/min/mg.
In the case of `O=C(Nc1cccc(Br)c1)c1ccc(COC(Cn2ccnc2)c2ccc(Cl)cc2Cl)cc1` (centres unmarked) [A10, N-(3-Bromophenyl)-4-((1-(2,4-dichlorophenyl)-2-(1H-imidazol-1-yl)ethoxy)methyl)benzamide], the MIC80 (Strain 17#) is reported as 16 µg/mL (≈ 29.3 µM), the MIC80 (C. alb (SC5314)) is reported as 0.25 µg/mL (≈ 0.458 µM) and the MIC80 (Strain 901) is reported as 2 µg/mL (≈ 3.67 µM). The MIC80 (C. neo) was 0.125 µg/mL (≈ 0.229 µM), the MIC80 (Strain 632) was 8 µg/mL (≈ 14.7 µM) and the MIC80 (Strain CaR) was 8 µg/mL (≈ 14.7 µM). For the same molecule, the IC50 (MRC-5 cells; Homo sapiens, MRC5, 72 h) was over 100 µM and the MIC80 (Strain 904) was 0.25 µg/mL (≈ 0.458 µM).
In the case of `Cc1ccc(NC(=O)c2ccc(COC(Cn3ccnc3)c3ccc(Cl)cc3Cl)cc2)cc1` (centres unmarked) [A05, 4-((1-(2,4-Dichlorophenyl)-2-(1H-imidazol-1-yl)ethoxy)methyl)-N-(p-tolyl)benzamide], the MIC80 (Strain 17#) is reported as 8 µg/mL (≈ 16.7 µM), the MIC80 (C. alb (SC5314)) is reported as 0.03 µg/mL (≈ 0.0624 µM) and the MIC80 (Strain 901) is reported as 4 µg/mL (≈ 8.33 µM). For the same molecule, the MIC80 (C. neo) was 0.25 µg/mL (≈ 0.52 µM), the MIC80 (Strain 632) was 4 µg/mL (≈ 8.33 µM) and the MIC80 (Strain CaR) was 4 µg/mL (≈ 8.33 µM). It also gave an IC50 (MRC-5 cells; Homo sapiens, MRC5, 72 h) of over 100 µM and an MIC80 (Strain 904) of 0.25 µg/mL (≈ 0.52 µM).
